From the supplement of paper PMC13380429

Tests used:
Settings in all cases: 72 h
[1] = system: U2OS; assay: relative viability EC50 (midpoint between 100% and the lowest measured viability); higher = less toxic
[2] = system: Calu-3; assay: as above
[3] = system: Vero E6; assay: as above
[4] = system: Caco-2; assay: as above
[5] = system: HepG2; assay: as above
[6] = system: U2OS; assay: cell viability relative to DMSO; higher = less toxic
[7] = system: Calu-3; assay: as above
[8] = system: Vero E6; assay: as above
[9] = system: Caco-2; assay: as above
[10] = system: HepG2; assay: as above
[11] = system: U2OS; assay: drug sensitivity score (DSS) for viability; higher = more toxic; extreme values may be limits of the assay
[12] = system: Calu-3; assay: as above
[13] = system: Vero E6; assay: as above
[14] = system: Caco-2; assay: as above
[15] = system: HepG2; assay: as above

| SMILES | relative viability EC50 [1] [µM] | relative viability EC50 [2] [µM] | relative viability EC50 [3] [µM] | relative viability EC50 [4] [µM] | relative viability EC50 [5] [µM] | cell viability ([6]; 1 nM) [%] | cell viability ([6]; 10 nM) [%] | cell viability ([6]; 100 nM) [%] | cell viability ([6]; 1000 nM) [%] | cell viability ([6]; 10000 nM) [%] | cell viability ([7]; 1 nM) [%] | cell viability ([7]; 10 nM) [%] | cell viability ([7]; 100 nM) [%] | cell viability ([7]; 1000 nM) [%] | cell viability ([7]; 10000 nM) [%] | cell viability ([8]; 1 nM) [%] | cell viability ([8]; 10 nM) [%] | cell viability ([8]; 100 nM) [%] | cell viability ([8]; 1000 nM) [%] | cell viability ([8]; 10000 nM) [%] | cell viability ([9]; 1 nM) [%] | cell viability ([9]; 10 nM) [%] | cell viability ([9]; 100 nM) [%] | cell viability ([9]; 1000 nM) [%] | cell viability ([9]; 10000 nM) [%] | cell viability ([10]; 1 nM) [%] | cell viability ([10]; 10 nM) [%] | cell viability ([10]; 100 nM) [%] | cell viability ([10]; 1000 nM) [%] | cell viability ([10]; 10000 nM) [%] | drug sensitivity score [11] | drug sensitivity score [12] | drug sensitivity score [13] | drug sensitivity score [14] | drug sensitivity score [15] |
| --- | --- | --- | --- | --- | --- | --- | --- | --- | --- | --- | --- | --- | --- | --- | --- | --- | --- | --- | --- | --- | --- | --- | --- | --- | --- | --- | --- | --- | --- | --- | --- | --- | --- | --- | --- |
| Cc1ccc(Cl)c(OC[C@H](O)CNC(C)C)c1 [1-(2-chloro-5-methylphenoxy)-3-(isopropylamino)-2-propanol] | > 10 | > 10 | > 10 | > 10 | > 10 | 104 | 97.2 | 101 | 106 | 101 | 96.6 | 101 | 103 | 108 | 102 | 104 | 103 | 95.9 | 104 | 92.8 | 95.1 | 101 | 99.1 | 91.1 | 94.8 | 93.5 | 100 | 108 | 104 | 103 | 0 | 0 | 0 | 0 | 0 |
| CC(=O)N1CCN(C)CC1 [1-acetyl-4-methylpiperazine] | > 10 | > 10 | > 10 | > 10 | > 10 | 103 | 99.1 | 96.2 | 99.8 | 102 | 89.8 | 86.6 | 95 | 100 | 93.8 | 105 | 104 | 104 | 98.2 | 95.9 | 100 | 93.6 | 101 | 95.7 | 97.3 | 104 | 111 | 101 | 99.5 | 100 | 0 | 0 | 0 | 0 | 0 |
| COc1ccc2[nH]c(I)c(CCNC(C)=O)c2c1 [2-iodomelatonin] | > 10 | > 10 | > 10 | > 10 | > 10 | 95.3 | 103 | 94.9 | 97.9 | 102 | 99.5 | 100 | 103 | 92.7 | 94.8 | 94.6 | 93.1 | 92.4 | 94.9 | 108 | 98.5 | 106 | 94.6 | 104 | 96.2 | 105 | 98.6 | 113 | 96.5 | 105 | 0 | 0 | 0 | 0 | 0 |
| c1ccc([C@H]2CNCc3ccccc32)cc1 [4-phenyl-1,2,3,4-tetrahydroisoquinoline] | > 10 | > 10 | > 10 | > 10 | > 10 | 99.9 | 101 | 94.1 | 94.9 | 100 | 101 | 109 | 92.3 | 102 | 105 | 96.7 | 99.4 | 100 | 99.6 | 98.8 | 98.1 | 109 | 97.3 | 103 | 103 | 101 | 91.7 | 103 | 104 | 96.7 | 0 | 0 | 0 | 0 | 0 |
| CC(C)N(CC[C@H](c1ccccc1)c1cc(CO)ccc1O)C(C)C [5-hydroxymethyl-tolterodine] | > 10 | > 10 | > 10 | > 10 | > 10 | 101 | 99.1 | 105 | 91.8 | 95.9 | 104 | 89.3 | 96.7 | 98.6 | 99.3 | 95.7 | 96.2 | 96.6 | 98.2 | 101 | 89 | 87.9 | 108 | 102 | 99.6 | 104 | 91.6 | 102 | 96.5 | 112 | 0 | 0 | 0 | 0 | 0 |
| COc1cc(N2CCC(N)CC2)ccc1Nc1ncc(Cl)c(-c2c[nH]c3ccccc23)n1 [AZD3463] | 1.39 | 1.73 | 2.08 | 0.923 | 0.402 | 93.5 | 101 | 95.1 | 69.2 | 2.6 | 97.2 | 88.9 | 95.1 | 81.8 | 9.4 | 104 | 100 | 102 | 87.1 | 4.5 | 103 | 98.2 | 99.6 | 64.3 | 34.9 | 102 | 102 | 78.1 | 41.6 | 12.7 | 9.6 | 8 | 7.4 | 8 | 13.6 |
| O=C(O)C[C@H]1CC[C@H](c2ccc(NC(=O)c3nnc(Nc4ccc(F)c(F)c4)o3)cc2)CC1 [AZD3988] | > 10 | > 10 | > 10 | > 10 | > 10 | 99.7 | 98.8 | 97.2 | 103 | 94.7 | 104 | 104 | 97.6 | 108 | 100 | 97.9 | 97.4 | 95.2 | 95.3 | 101 | 99 | 104 | 96.6 | 100 | 87.9 | 110 | 105 | 103 | 93 | 102 | 0 | 0 | 0 | 0 | 0 |
| N[C@@H](C[C@@H](F)C(=O)O)C(=O)O [BAY-85-8050] | > 10 | > 10 | > 10 | > 10 | > 10 | 93.5 | 99.6 | 96.7 | 100 | 106 | 90.2 | 94.7 | 90.6 | 86.2 | 98.5 | 93.6 | 93.8 | 102 | 95.7 | 100 | 91.1 | 105 | 97.8 | 100 | 110 | 96.2 | 98.7 | 109 | 95.6 | 99.7 | 0 | 0 | 0 | 0 | 0 |
| COC(=O)c1ccc2c(c1)nc(NC(=O)c1ccccc1)n2CCCc1ccccc1 [BRD4770] | > 10 | > 10 | > 10 | > 10 | > 10 | 97.9 | 98.6 | 98.2 | 99.3 | 88.3 | 107 | 96.6 | 97.4 | 93.6 | 95.5 | 103 | 97.4 | 98 | 96.6 | 90.1 | 98 | 103 | 94.1 | 91.9 | 80 | 109 | 97.2 | 99.9 | 94.3 | 77 | 0.1 | 0 | 0 | 1 | 1.6 |
| CC1(C)[C@@H](OC(=O)CCC(=O)O)CC[C@]2(C)[C@H]3C(=O)C=C4[C@@H]5C[C@@](C)(C(=O)O)CC[C@]5(C)CC[C@@]4(C)[C@]3(C)CC[C@@H]12 [CARBENOXOLONE SODIUM] | > 10 | > 10 | > 10 | > 10 | > 10 | 107 | 99.8 | 101 | 103 | 104 | 88.9 | 102 | 92.8 | 106 | 96 | 100 | 49.3 | 101 | 59.6 | 99.2 | 94.4 | 96.6 | 92.3 | 99.1 | 99 | 97.8 | 98 | 113 | 96.6 | 91.2 | 0 | 0 | 0 | 0 | 0 |
| O=C(O)[C@H]1CN(CCCP(=O)(O)O)CCN1 [CPP] | > 10 | > 10 | > 10 | > 10 | > 10 | 103 | 106 | 101 | 101 | 99.8 | 102 | 104 | 92.6 | 89.4 | 90.5 | 99.2 | 103 | 99.8 | 102 | 102 | 97 | 101 | 103 | 101 | 94.5 | 96.6 | 112 | 98.6 | 103 | 104 | 0 | 0.2 | 0 | 0 | 0 |
| c1ccc(CNc2nc(NCc3ccccc3)c3ccccc3n2)cc1 [DBeQ] | 2.31 | 2.61 | 2.57 | 3.17 | 2.89 | 97.6 | 102 | 97.1 | 90.5 | 8.2 | 105 | 103 | 91.2 | 93.7 | 9 | 99.8 | 98.9 | 95.5 | 94.1 | 19.8 | 95.7 | 112 | 94.5 | 100 | 28.8 | 104 | 96.1 | 100 | 96.6 | 8.4 | 6.7 | 6 | 5.4 | 3.9 | 5.5 |
| O=P(O)(O)CN(CCN(CP(=O)(O)O)CP(=O)(O)O)CP(=O)(O)O [EDTMP] | > 10 | > 10 | > 10 | > 10 | > 10 | 99.8 | 95.9 | 102 | 97.8 | 104 | 105 | 100 | 96 | 97.1 | 99 | 96.1 | 99.8 | 102 | 98.2 | 91 | 98.2 | 95.5 | 95.4 | 105 | 104 | 88.5 | 96.3 | 96.5 | 92.2 | 106 | 0 | 0 | 0 | 0 | 0 |
| C[C@@H](CCCCC(=O)Nc1ccc(C(F)(F)F)cc1)NCCc1c[nH]cn1 [HTMT] | > 10 | > 10 | > 10 | > 10 | > 10 | 99.9 | 100 | 96.9 | 101 | 106 | 100 | 97.8 | 100 | 106 | 100 | 98.3 | 94.7 | 98 | 100 | 108 | 97.2 | 92.8 | 87 | 99.4 | 94.1 | 110 | 95.6 | 104 | 104 | 98 | 0 | 0 | 0 | 0 | 0 |
